According to patent US9232796B2, “Herbicidal compositions comprising 4-amino-3-chloro-5-fluoro-6-(4-chloro-2-fluoro-3-methoxyphenyl) pyridine-2-carboxylic acid or a derivative thereof and acetyl-CoA carboxylase (ACCase) inhibitors” (DOW AGROSCIENCES LLC, priority 2012, dated 2016):
“And” between values parts separate entries of the source, which are not always exact repeats. Equal values may be shown once.

Assays:
[1] = system: SCPJU; test: Example I postemergence foliar-applied, greenhouse, direct seeded rice weeds; assay type: in vivo, Schoenoplectus juncoides (Roxb.) Palla
Summary of the method: (§1)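 Greenhouse plants in loam/sandy loam–grit soil (80:20), grown 8-22 days (29/26 °C, 14 hr photoperiod) to first–fourth true leaf, sprayed postemergence at 187 L/ha with 1.25% (v/v) crop oil concentrate, alone or in mixtures. Visual injury scored 0–100% versus untreated plants after about 3 weeks; mixture expectations by Colby's equation.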

[2] = system: CYPIR; test: as above; assay type: in vivo, Cyperus iria L.
Summary of the method: as §1

[3] = system: CYPDI; test: Example V post-emergence field trials in direct-seeded rice; assay type: in vivo, Cyperus difformis; settings: foliar, field trial Greece
Procedure: (§2) Multiple field trials were conducted under commercial grower field conditions in Tolima, Colombia; Thessaloniki, Greece; Bianze and Copiano, Italy; and Humphrey, Ark., USA. Trials sites were located in commercially grown fields of direct-seeded rice (Oryza sativa) using standard herbicide small plot research methodology. Plots varied from 2 to 3 meter (m)×5 to 8 m (width×length) with 4 replicates per treatment. The rice crop was grown using normal cultural practices for fertilization, seeding, watering, flooding and maintenance to ensure good growth of the crop and the weeds.
(§3) All treatments in the field trials were applied using a backpack compressed air/gas sprayer with flat fan nozzles (80° or 110°) calibrated to apply 187 to 300 L/ha spray volume at approximately 200-400 kPa nozzle pressure. Commercially available products of cyhalofop-butyl (Clincher 180EC, Clincher 200EC, and Clincher SF (285 gr ai/L EC)) were mixed in water at appropriate formulated product rates to achieve the desired rates based on a unit area of application (hectare) to achieve the desired rates as shown. Treatments were rate at 19 to 58 days after application (DAA) as compared to the untreated control plants. Visual weed control was scored on a scale of 0 to 100 percent where 0 corresponds to no injury and 100 corresponds to complete kill. […]

[4] = system: FIMMI; test: as above; assay type: in vivo, Fimbristylis miliacea; settings: foliar, field trial Tolima, Colombia
Procedure: as §2, §3

[5] = system: IPOHE; test: Example V (second) postemergence foliar-applied ternary mixtures, greenhouse, direct seeded rice weeds; assay type: in vivo, Ipomoea hederacea Jacq.
Excerpt: All stock solutions and applications solutions were visually inspected for compound compatibility prior to application. Spray solutions were applied to the plant material with an overhead Mandel track sprayer equipped with a 8002E nozzles calibrated to deliver 187 L/ha over an application area of 0.503 m^2 at a spray height of 18 inches (46 cm) above average plant canopy height. Control plants were sprayed in the same manner with the solvent blank.
The treated plants and control plants were placed in a greenhouse as described above and watered by sub-irrigation to prevent wash-off of the test compounds. After approximately 3 weeks, the condition of the test plants as compared with that of the untreated plants was determined visually and scored on a scale of 0 to 100 percent where 0 corresponds to no injury or growth inhibition and 100 corresponds to complete kill.
Colby's equation was used to determine the herbicidal effects expected from the mixtures (Colby, S. R. 1967. Calculation of the synergistic and antagonistic response of herbicide combinations. Weeds 15:20-22.).
The following equation was used to calculate the expected activity of mixtures containing three active ingredients, A, B, and C: Expected=A+B+C−((A×B+A×C+B×C)/100)+(A×B×C/10000)

Row | Structure (SMILES) | Visual Weed Control (%) - 20 DAA SCPJU Obs ([1]; 4.38 gae/ha) | Visual Weed Control (%) - 22 DAA SCPJU Obs ([1]; 4.38 gae/ha) | Visual Weed Control (%) - 20 DAA SCPJU Obs ([1]; 8.75 gae/ha) | Visual Weed Control (%) - 22 DAA CYPIR Obs ([2]; 4.38 gae/ha) | Visual Weed Control (%) - 55-58 DAA CYPDI Obs ([3]; 300 gai/ha) | Visual Weed Control (%) - 19 DAA FIMMI Obs ([4]; 190 gai/ha) | Visual Weed Control (%) - 21 DAA IPOHE Obs ([5]; Cyhalofop-butyl 35 gai/ha) | Visual Weed Control (%) - 20 DAA SCPJU Obs ([1]; 8 gae/ha) | Visual Weed Control (%) - 21 DAA SCPJU Obs ([1]; 8 gae/ha) | Visual Weed Control (%) - 20 DAA SCPJU Obs ([1]; 16 gae/ha) | Visual Weed Control (%) - 20 DAA CYPIR Obs ([2]; 4.38 gae/ha) | Visual Weed Control (%) - 22 DAA CYPIR Obs ([2]; 8 gae/ha) | Visual Weed Control (%) - 20 DAA CYPIR Obs ([2]; 8.75 gae/ha) | Visual Weed Control (%) - 22 DAA CYPIR Obs ([2]; 16 gae/ha) | Visual Weed Control (%) - 22 DAA CYPIR Obs ([2]; 32 gae/ha) | Visual Weed Control (%) - 55-58 DAA CYPDI Obs ([3]; 24 gae/ha) | Visual Weed Control (%) - 19 DAA FIMMI Obs ([4]; 24 gae/ha) | Visual Weed Control (%) - 21 DAA IPOHE Obs ([5]; 8 gae/ha) | Visual Weed Control (%) - 21 DAA IPOHE Obs ([5]; 16 gae/ha)
1 | COc1c(Cl)ccc(-c2nc(C(=O)O)c(Cl)c(N)c2F)c1F [Compound A Acid, 4-amino-3-chloro-6-(4-chloro-2-fluoro-3-methoxyphenyl)-5-fluoropyridine-2-carboxylic acid] | 60% and 70% | 60% | 95% | 15% | – | – | – | – | – | – | – | – | – | – | – | – | – | – | –
2 | CCCCOC(=O)[C@@H](C)Oc1ccc(Oc2ccc(C#N)cc2F)cc1 [Cyhalofop-butyl, butyl(2R)-2-[4-(4-cyano-2-fluorophenoxy)phenoxy]propanoate, reference compound] | – | – | – | – | 0% | 16% | 0% | – | – | – | – | – | – | – | – | – | – | – | –
3 | COc1c(Cl)ccc(-c2nc(C(=O)OCc3ccccc3)c(Cl)c(N)c2F)c1F [Compound A Benzyl Ester, benzyl ester of 4-amino-3-chloro-5-fluoro-6-(4-chloro-2-fluoro-3-methoxy-phenyl)pyridine-2-carboxylic acid] | 30% | – | 60% | – | – | – | – | 70% | 85% | 85% | 15% | 20% | 35% | 85% | 100% | 81% | 39% | 15% | 33%
